Tests used:
[1] = Encapsulation of steroids into PLGA nanoparticles (steroid content by HPLC); type: physicochemical; details: for Steroid/nanoparticle (wt %): PLGA nanoparticles
Protocol: Each mixture was centrifuged at 12,000 rpm for 5 min and the supernatant was discarded to obtain precipitates in the form of zinc-steroids or iron-steroids. […] To each of the resultant solutions, an aqueous solution of zinc acetate was added and the mixture was allowed to stand for 2 hours at room temperature. […] The mixture was then centrifuged at 20,000 G for 20 min. Following the removal of the supernatant, the residue was resuspended in water and the suspension was again centrifuged to wash the nanoparticles. […] Similarly, the amount of water-insoluble steroid was determined for the nanoparticles prepared by different method without metal ions.

[2] = Formation of water-insoluble precipitates of drugs with metal ions (turbidity observed); type: physicochemical; details: 20 mM drug in 0.2M Tris-HCl pH 7.8 + equal volume 100 mM metal ion
Protocol: Compounds shown in Table 1 below were used to as the low-molecular weight, water-soluble and non-peptide drug having phosphate groups. […] The solution was then added to equal volume of 100 mM aqueous solutions of different metal ions. The turbidity of each of the resulting mixtures was observed.

[3] = as above; type: physicochemical; details: for Formation of precipitates with metal ions: 3N HCl, 20 mM drug in 0.2M Tris-HCl pH 7.8
[4] = system: inflammatory sites; assay: Accumulation of nanoparticles in inflammatory sites (carrageenin leg edema, fluorescence microscopy); type: in vivo, male Lewis rats; details: single tail vein injection 4 hours after carrageenin; 2 hours after administration
Protocol: Inflammation was induced by injecting 100 μl physiological saline containing 1% carrageenin in the left hind paw of male Lewis rats. After 4 hours, single dosages of rhodamine-encapsulating nanoparticles of two different sizes (200 nm and 500 nm) were injected into a tail vein. 2 hours after administration, the resultant leg edema was cut and cryostat sections were prepared.
As controls, one group was administered with physiological saline and another group with rhodamine alone.

CCC(=O)OCC(=O)[C@@]1(OC(=O)CC)[C@@H](C)C[C@H]2[C@@H]3CCC4=CC(=O)C=C[C@]4(C)[C@@]3(F)[C@@H](O)C[C@@]21C [BDP, betamethasone dipropionate]
Steroid/nanoparticle (wt %) [1]: 0.47 wt %

C[C@H]1C[C@H]2[C@@H]3CCC4=CC(=O)C=C[C@]4(C)[C@@]3(F)[C@@H](O)C[C@]2(C)[C@@]1(O)C(=O)COP(=O)(O)O [BP-Fe, betamethasone phosphate]
Steroid/nanoparticle (wt %) [1]: 1.15 wt %

C[C@H]1C[C@H]2[C@@H]3CCC4=CC(=O)C=C[C@]4(C)[C@@]3(F)[C@@H](O)C[C@]2(C)[C@@]1(O)C(=O)COP(=O)(O)O [BP-Na, betamethasone phosphate]
Steroid/nanoparticle (wt %) [1]: 0 wt %

C[C@H]1C[C@H]2[C@@H]3CCC4=CC(=O)C=C[C@]4(C)[C@@]3(F)[C@@H](O)C[C@]2(C)[C@@]1(O)C(=O)COP(=O)(O)O [BP-Zn, betamethasone phosphate]
Steroid/nanoparticle (wt %) [1]: 2.03 wt %

C[C@@H]1C[C@H]2[C@@H]3CCC4=CC(=O)C=C[C@]4(C)[C@@]3(F)[C@@H](O)C[C@]2(C)[C@@]1(O)C(=O)COP(=O)(O)O [DP-Na, dexamethasone phosphate]
Steroid/nanoparticle (wt %) [1]: 0 wt %

C[C@@H]1C[C@H]2[C@@H]3CCC4=CC(=O)C=C[C@]4(C)[C@@]3(F)[C@@H](O)C[C@]2(C)[C@@]1(O)C(=O)COP(=O)(O)O [DP-Zn, dexamethasone phosphate]
Steroid/nanoparticle (wt %) [1]: 1.15 wt %

C[C@@H]1C[C@H]2[C@@H]3CCC4=CC(=O)C=C[C@]4(C)[C@@]3(F)[C@@H](O)C[C@]2(C)[C@@]1(O)C(=O)COP(=O)(O)O [Dexamethasone phosphate, dexamethasone phosphate]
Formation of precipitates with metal ions ([2]; CuCl2): +++ | Formation of precipitates with metal ions ([2]; FeCl2): +++ | Formation of precipitates with metal ions ([2]; FeCl3): +++ | Formation of precipitates with metal ions ([2]; MgCl2): − | Formation of precipitates with metal ions ([2]; NiCl2): + | Formation of precipitates with metal ions ([2]; Zn(CH3COO)2): +++ | Formation of precipitates with metal ions ([2]; ZnCl2): +++ | Formation of precipitates with metal ions [3]: −

CC(=O)OCC(=O)[C@@]1(O)[C@@H](C)C[C@H]2[C@@H]3CCC4=CC(=O)C=C[C@]4(C)[C@@]3(F)[C@@H](O)C[C@@]21C [betamethasone acetate]
Steroid/nanoparticle (wt %) [1]: 0.15 wt %

C[C@H]1C[C@H]2[C@@H]3CCC4=CC(=O)C=C[C@]4(C)[C@@]3(F)[C@@H](O)C[C@]2(C)[C@@]1(O)C(=O)COP(=O)(O)O [betamethasone phosphate]
Formation of precipitates with metal ions ([2]; CuCl2): +++ | Formation of precipitates with metal ions ([2]; FeCl2): +++ | Formation of precipitates with metal ions ([2]; FeCl3): +++ | Formation of precipitates with metal ions ([2]; MgCl2): − | Formation of precipitates with metal ions ([2]; NiCl2): − | Formation of precipitates with metal ions ([2]; Zn(CH3COO)2): +++ | Formation of precipitates with metal ions ([2]; ZnCl2): +++ | dispersion state of the nanoparticles ([1]; 500 μl or less of acetone): formed aggregates | dispersion state of the nanoparticles ([1]; 700 μl acetone): remained stably dispersed | Steroid/nanoparticle (wt %) ([1]; zinc precipitate of 5 mg, acetone 700 μl): 7.34 wt % | Steroid/nanoparticle (wt %) ([1]; zinc precipitate of 5 mg, acetone 900 μl): 4.28 wt % | Steroid/nanoparticle (wt %) ([1]; zinc precipitate of 5 mg, acetone 1100 μl): 3.46 wt % | Steroid/nanoparticle (wt %) ([1]; zinc precipitate of 5 mg, acetone 1300 μl): 2.71 wt % | Steroid/nanoparticle (wt %) ([1]; zinc precipitate of 5 mg, acetone 1500 μl): 1.93 wt % | Formation of precipitates with metal ions [3]: −

Cc1cc2nc3c(=O)[nH]c(=O)nc-3n(C[C@H](O)[C@H](O)[C@H](O)COP(=O)(O)O)c2cc1C [riboflavin phosphate]
Formation of precipitates with metal ions ([2]; CuCl2): +++ | Formation of precipitates with metal ions ([2]; FeCl2): +++ | Formation of precipitates with metal ions ([2]; FeCl3): +++ | Formation of precipitates with metal ions ([2]; MgCl2): − | Formation of precipitates with metal ions ([2]; NiCl2): − | Formation of precipitates with metal ions ([2]; Zn(CH3COO)2): +++ | Formation of precipitates with metal ions ([2]; ZnCl2): +++ | Formation of precipitates with metal ions [3]: − | molar ratio with respect to zinc ion at which precipitate formation was most significant ([3]; zinc ion, molar ratio varied): approximately 1

Naphthyl-phosphate
Formation of precipitates with metal ions ([2]; CuCl2): − | Formation of precipitates with metal ions ([2]; FeCl2): +++ | Formation of precipitates with metal ions ([2]; FeCl3): +++ | Formation of precipitates with metal ions ([2]; MgCl2): − | Formation of precipitates with metal ions ([2]; NiCl2): − | Formation of precipitates with metal ions ([2]; Zn(CH3COO)2): +++ | Formation of precipitates with metal ions ([2]; ZnCl2): +++ | Formation of precipitates with metal ions [3]: −

hydrocortisone phosphate [HP-Na]
Steroid/nanoparticle (wt %) [1]: 0 wt %

hydrocortisone phosphate [HP-Zn]
Steroid/nanoparticle (wt %) [1]: 1.05 wt %

rhodamine
accumulation of the nanoparticles in the inflammatory sites (fluorescence in tissue sections) [4]: No significant accumulation

Source: US20060233883A1, “Intravenous nanoparticles for targeting drug delivery and sustained drug release” (priority 2003, published 2006)
